According to patent publication US5578570A, “Method of treating septic shock using thymosin β4” (The George Washington University Medical Center, priority 1994, dated 1996):

System: Rats with Septic Shock
Assay: Survival of Sprague-Dawley rats in septic shock model (peritonitis)
Assay type: in vivo
Conditions: Table XIV, septic shock + antibiotic (gentamicin sulfate, 1 mg/rat) alone, 10 rats at 0 hr
Text: Using a septic shock model in rats (Sprague-Dawley, male, 200-225 g each), the effect of thymosin β4 alone and together with antibiotics was studied. Peritonitis was induced in rats in the following way. A 1-cm incision was made into the peritoneal which exposed the cecum. A tight ligature was placed around the cecum with 4-0 suture distal to the insertion of the small bowel, forming an area of devitalized tissue while maintaining bowel continuity. A puncture wound was made with 16-gauge needle into the anti-mesenteric surface of the cecum and a small amount of fecal contents was expressed through the wound. The cecum was replaced into the peritoneal cavity, and the anterior peritoneal wall and skin were closed with surgical staples. Each animal was given a bolus of normal saline (15 ml/kg) for hydration and allowed to recover overnight.

gentamicin sulfate [antibiotic, reference compound]
Survival of rats (number alive) (24 hr): 1
Survival of rats (number alive) (48 hr): 1
Survival of rats (number alive) (72 hr): 0
